# Assay results reported in PubChem BioAssay (NCI).
#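 Five concentrations, 48 hours, 96-well plates. At the TGI there is no net growth.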
# Key:
# Experiment in all cases: growth of human tumour cells (NCI), 48 h
# 786-0 renal = test system: 786-0 renal
# A498 renal = test system: A498 renal
# A549 NSCLC = test system: A549 NSCLC
# ACHN renal = test system: ACHN renal
# CAKI-1 renal = test system: CAKI-1 renal
# CCRF-CEM leukemia = test system: CCRF-CEM leukemia
# COLO 205 colon = test system: COLO 205 colon
# DLD-1 colon = test system: DLD-1 colon
# DMS 273 small cell lung = test system: DMS 273 small cell lung
# EKVX NSCLC = test system: EKVX NSCLC
# HCC-2998 colon = test system: HCC-2998 colon
# HCT-116 colon = test system: HCT-116 colon
# HCT-15 colon = test system: HCT-15 colon
# HL-60(TB) leukemia = test system: HL-60(TB) leukemia
# HOP-18 NSCLC = test system: HOP-18 NSCLC
# HOP-62 NSCLC = test system: HOP-62 NSCLC
# HOP-92 NSCLC = test system: HOP-92 NSCLC
# HT29 colon = test system: HT29 colon
# IGROV1 ovarian = test system: IGROV1 ovarian
# K-562 leukemia = test system: K-562 leukemia
# KM12 colon = test system: KM12 colon
# KM20L2 colon = test system: KM20L2 colon
# LOX IMVI melanoma = test system: LOX IMVI melanoma
# M14 melanoma = test system: M14 melanoma
# M19-MEL melanoma = test system: M19-MEL melanoma
# MALME-3M melanoma = test system: MALME-3M melanoma
# MOLT-4 leukemia = test system: MOLT-4 leukemia
# NCI-H226 lung = test system: NCI-H226 lung
# NCI-H23 lung = test system: NCI-H23 lung
# NCI-H460 lung = test system: NCI-H460 lung
# NCI-H522 lung = test system: NCI-H522 lung
# OVCAR-3 ovarian = test system: OVCAR-3 ovarian
# OVCAR-4 ovarian = test system: OVCAR-4 ovarian
# OVCAR-5 ovarian = test system: OVCAR-5 ovarian
# OVCAR-8 ovarian = test system: OVCAR-8 ovarian
# RPMI-8226 leukemia = test system: RPMI-8226 leukemia
# RXF 393 renal = test system: RXF 393 renal
# SF-268 CNS = test system: SF-268 CNS
# SF-295 CNS = test system: SF-295 CNS
# SF-539 CNS = test system: SF-539 CNS
# SK-MEL-2 melanoma = test system: SK-MEL-2 melanoma
# SK-MEL-28 melanoma = test system: SK-MEL-28 melanoma
# SK-MEL-5 melanoma = test system: SK-MEL-5 melanoma
# SK-OV-3 ovarian = test system: SK-OV-3 ovarian
# SN12C renal = test system: SN12C renal
# SNB-19 CNS = test system: SNB-19 CNS
# SNB-75 CNS = test system: SNB-75 CNS
# SNB-78 CNS = test system: SNB-78 CNS
# SR leukemia = test system: SR leukemia
# SW-620 colon = test system: SW-620 colon
# TK-10 renal = test system: TK-10 renal
# U251 CNS = test system: U251 CNS
# UACC-257 melanoma = test system: UACC-257 melanoma
# UACC-62 melanoma = test system: UACC-62 melanoma
# UO-31 renal = test system: UO-31 renal
# XF 498 CNS = test system: XF 498 CNS
structure (smiles),measurement,setting,value
C=CCCCCCCCCCP(=O)(c1ccccc1)c1ccc2c(c1)OCCOCCOCCOCCO2 (stereo unspecified),TGI,786-0 renal,29.8 µM
same,TGI,A498 renal,27.7 µM
same,TGI,A549 NSCLC,28.1 µM
same,TGI,ACHN renal,31.4 µM
same,TGI,CAKI-1 renal,> 100 µM
same,TGI,CCRF-CEM leukemia,40 µM
same,TGI,COLO 205 colon,31 µM
same,TGI,DLD-1 colon,27.3 µM
same,TGI,DMS 273 small cell lung,29.1 µM
same,TGI,EKVX NSCLC,34.2 µM
same,TGI,HCC-2998 colon,31.2 µM
same,TGI,HCT-116 colon,25.1 µM
same,TGI,HCT-15 colon,28.2 µM
same,TGI,HL-60(TB) leukemia,19.7 µM
same,TGI,HOP-18 NSCLC,31.8 µM
same,TGI,HOP-62 NSCLC,30.5 µM
same,TGI,HOP-92 NSCLC,> 100 µM
same,TGI,HT29 colon,24.8 µM
same,TGI,IGROV1 ovarian,30.2 µM
same,TGI,K-562 leukemia,24.6 µM
same,TGI,KM12 colon,25.4 µM
same,TGI,KM20L2 colon,27.1 µM
same,TGI,LOX IMVI melanoma,29 µM
same,TGI,M14 melanoma,> 100 µM
same,TGI,M19-MEL melanoma,33 µM
same,TGI,MALME-3M melanoma,31.9 µM
same,TGI,MOLT-4 leukemia,24.9 µM
same,TGI,NCI-H226 lung,33.9 µM
same,TGI,NCI-H23 lung,29.7 µM
same,TGI,NCI-H460 lung,26.4 µM
same,TGI,NCI-H522 lung,24.5 µM
same,TGI,OVCAR-3 ovarian,19.7 µM
same,TGI,OVCAR-4 ovarian,24.8 µM
same,TGI,OVCAR-5 ovarian,31.2 µM
same,TGI,OVCAR-8 ovarian,30.3 µM
same,TGI,RPMI-8226 leukemia,31.8 µM
same,TGI,RXF 393 renal,27.4 µM
same,TGI,SF-268 CNS,29.5 µM
same,TGI,SF-295 CNS,28.5 µM
same,TGI,SF-539 CNS,31.9 µM
same,TGI,SK-MEL-2 melanoma,31.9 µM
same,TGI,SK-MEL-28 melanoma,30.1 µM
same,TGI,SK-MEL-5 melanoma,24.2 µM
same,TGI,SK-OV-3 ovarian,34.8 µM
same,TGI,SN12C renal,32.4 µM
same,TGI,SNB-19 CNS,25.7 µM
same,TGI,SNB-75 CNS,33.1 µM
same,TGI,SNB-78 CNS,34.5 µM
same,TGI,SR leukemia,22.8 µM
same,TGI,SW-620 colon,29.9 µM
same,TGI,TK-10 renal,32.4 µM
same,TGI,U251 CNS,29.3 µM
same,TGI,UACC-257 melanoma,30.6 µM
same,TGI,UACC-62 melanoma,29.4 µM
same,TGI,UO-31 renal,22.7 µM
same,TGI,XF 498 CNS,32.7 µM
